Here are results for three compounds from publication PMC6883804, “Cathelicidin Contributes to the Restriction of Leishmania in Human Host Macrophages” (Frontiers in Immunology, 2019).

Experiment [1] has as its system L. major dsRed in hMDM1. Kind of experiment: Infection rate (% dsRed+ hMDM1) by flow cytometry. Conditions: hMDM1 pretreated 24 h with 100 nM, infected with Lm dsRed MOI 10, flow cytometry. The experiment is classed as cell-based, Leishmania major. How it is done:
(§1) The cells were co-incubated with stationary phase Lm or Lae promastigotes or axenic amastigotes at a MOI ratio of 1:10 in RPMI 1640 supplemented with 10% heat inactivated fetal calf serum, 50 μM β-mercaptoethanol (all from Sigma Aldrich), 2 mM L-glutamine, 100 U/ml penicillin and 100 μg/ml streptomycin, 10 mM HEPES (all from Biochrom) for 3 h at 37°C in a humidified atmosphere in a CO2 incubator. Extracellular parasites were removed by centrifugation and washing the cells. During infection experiments, cathelicidin expression was induced by incubation of hMDM with 100 nM calcitriol or calcipotriol for 24 h. For transgenic LmdsRed flow cytometry was used to analyze infection rates. […] The LmdsRed promastigotes increase their fluorescence intensity when transforming into amastigotes, which enables the quantification of the parasite propagation by measuring the dsRed mean fluorescence intensity using FACS ([62], [63]).
(§2) • FACS analysis of Leishmania parasites was performed as described Wenzel et al. ([61]). […] The cells were washed in FACS-Buffer and analyzed by flow cytometry. • To assess parasite survival, Leishmania (dsRed^+) infected hMDM were washed in FACS-buffer and infection rate (% of dsRed^+ hMDM) and the parasite load (mean fluorescent intensity) were assessed by flow cytometry. […] Data were analyzed by BD FACS Diva or FlowJo software (Treestar).

The subject of experiment [2] is cathelicidin. The experiment in a line: Cathelicidin protein expression in hMDM1 by western blot densitometry. Conditions: hMDM1, 100 nM, western blot densitometry normalized to ß-actin and untreated control = 1, mean ± SD, n = 5-7. In kind it is cell-based, human. How it is done: (§3) Human peripheral mononuclear cells (PBMCs) were isolated from buffy coats (DRK-Blutspendedienst Hessen GmbH) by passage over a Leukocyte Separation Medium gradient as described previously ([30]). Monocytes, obtained by plastic adherence or CD14 selection were incubated either with 10 ng/ml rhGM-CSF (Leukine® Sanofi-Aventis, Bridgewater, US) or 30 ng/ml rhM-CSF (R&D Systems, Abingdon, UK) for a period of 5 to 7 d at 37°C, 5% CO2 to generate hMDM1 or hMDM2, respectively. Cells were generated in 6 w plates or in 25 cm^2 culture flasks and were detached by cooling cells down on ice, following detachment with a cell scraper. Experimental data, conducted with monocytes obtained from human donors, are depicted as dot plots, in which each dot presents data from a single donor.
as §1, with “h.” for “h. For transgenic LmdsRed flow cytometry was used to analyze infection rates.”
A total number of 0.5 × 10^6 hMDM were lysed in Lämmli-Buffer (A. bidest supplemented with 0.7 M Glycerol, 1.7% SDS, 0.1 M DTT and 30 μM Bromphenol blue), denaturated at 95°C for 10 min and loaded onto a 15% SDS-polyacrylamide gel. […] The membrane was washed once more and the protein bands were detected using an ECL substrate (GE Healthcare, Buckinghamshire, United Kingdom). Using ImageJ, densitometry analysis was performed to quantify the intensities of the protein bands.
On the technique in general: Immunoblotting shows a protein as a band on a membrane.

Experiment [3] concerns CAMP. Kind of experiment: CAMP gene expression in hMDM1 by qRT-PCR after vitamin D derivatives. In kind it is cell-based, human. Conditions: hMDM1, 100 nM, after 6 days (late), qRT-PCR normalized to GAPDH and to untreated control = 1, mean ± SD, n = 1-5. The method, then:
as §3, with “Experimental data, conducted with monocytes obtained from human donors, are depicted as dot plots, in which each dot presents data from a single donor.” left out
as §1, with “incubator.” for “incubator. Extracellular parasites were removed by centrifugation and washing the cells. During infection experiments, cathelicidin expression was induced by incubation of hMDM with 100 nM calcitriol or calcipotriol for 24 h. For transgenic LmdsRed flow cytometry was used to analyze infection rates.”, “[63]). […]” for “[63]).”
(In qPCR the cycle at which signal appears reflects the starting amount.)

Experiment [4] relates to L. major dsRed in hMDM1. Kind of experiment: Parasite survival (dsRed MFI) in infected hMDM1 by flow cytometry. To be noted: hMDM1 pretreated 24 h with 100 nM, infected with Lm dsRed MOI 10, flow cytometry, mean ± SD; control 1.00 ± 0.46. The experiment is classed as cell-based, Leishmania major. The method, then: as §1, §2
Experiment [5] has as its system L. aethiopica (Lae). Kind of experiment: DNA fragmentation (TUNEL) by flow cytometry, L. aethiopica. In kind it is cell-based, Leishmania aethiopica. The method, then:
(§4) L. major (Lm, MHOM_IL_81_FEBNI), L. aethiopica (Lae, MHOM/ET/72/L100 Z14), and the transgenic Lm dsRed (construct pSSUint-DsRed was a kind gift from Dr. Toni Aebischer, Robert Koch Institute, Berlin, Germany) and Lae dsRed promastigotes were cultured at 27°C in biphasic Novy-Nicolle-McNeal blood agar medium as described ([60]). Of note, all viable promastigotes express the transgenic dsRed protein. Upon transformation into the amastigote life stage, a 1 log-scale higher dsRed fluorescence is present, due to the high-level expression in the amastigote life stage ([31]). Logarithmic-phase or stationary-phase promastigotes were obtained after 2 (log-phase) or 7 (stat-phase) days of culture, respectively. Lm and Lae axenic amastigotes were generated by incubating log-phase promastigotes in pH 5.5 at 33°C and isolated using a discontinuous Histopaque® 1119 (Sigma Aldrich, Germany) density gradient as described ([61]).
(§5) To assess apoptosis, Lm and Lae promastigotes, which resided in a logarithmic growth phase, were treated with 30 and 60 ng/ml hrLL37 (PeptaNova GmbH, Sandhausen, Germany) for 72 h. […] Subsequently, DNA fragmentation was assessed by flow cytometry or immunofluorescence imaging using an in situ cell-death detection kit, based on terminal deoxynucleotidyl transferase dUTP nick end labeling (TUNEL), as described ([30]). Exposure of phosphatidylserine (PS) was assessed by AnnexinA5 binding using flow cytometry.
(§6) • FACS analysis of Leishmania parasites was performed as described Wenzel et al. ([61]). Apoptosis, among parasites, was assessed by staining with AnnexinA5-Alexa Fluor 647 using a Ca^2+ rich buffer. • For phenotyping hMDM by flow cytometry, hMDM were washed in FACS-Buffer (PBS supplemented with 1% FCS, 1% human serum and 1% BSA) and incubated with anti-CD14-FITC (1:100, IgG2b), anti-CD163-PE (1:50, IgG1, GHI/61), or anti-MHC II-PerCP (1:100, IgG2a, L243) for 30 min on ice in the dark. […] Upon analyzing, at least 10,000 events (human cells) or 20,000 (parasites) were recorded using a BD LSR II flow cytometer (BD Bioscience, Heidelberg, Germany). […]
On the technique in general: A flow cytometer gives signals particle by particle.

Experiment [6] has as its system Leishmania major (Lm). The experiment in a line: DNA fragmentation (TUNEL) by flow cytometry, L. major. In kind it is cell-based. Conditions: mean ± SD. The method, then:
as §4, §5, §6

The test system of experiment [7] is Leishmania major (Lm). Kind of experiment: Phosphatidylserine exposure (AnnexinA5 binding) by flow cytometry, L. major. In kind it is cell-based. Conditions: mean ± SD; for AnnexinA5-binding parasites: Lm log-phase promastigotes, 72 h, untreated 14.7 ± 11.1%. The method, then:
as §4, §5, §6

The test system of experiment [8] is L. aethiopica (Lae). Kind of experiment: Phosphatidylserine exposure (AnnexinA5 binding) by flow cytometry, L. aethiopica. The experiment is classed as cell-based, Leishmania aethiopica. Conditions: mean ± SD; for AnnexinA5-binding parasites: Lae log-phase promastigotes, 72 h, untreated 8.0 ± 4.5%. How it is done:
as §4, §5, §6

In experiment [9] the test system is Leishmania promastigotes. The experiment in a line: Parasite morphology by microscopy after hrLL37 treatment. In kind it is cell-based. Conditions: microscopy (Figure 2C), as described for apoptotic parasites. The method, then:
To assess apoptosis, Lm and Lae promastigotes, which resided in a logarithmic growth phase, were treated with 30 and 60 ng/ml hrLL37 (PeptaNova GmbH, Sandhausen, Germany) for 72 h. Leishmania axenic amastigotes were treated with 10 and 100 ng/ml hrLL37 or 25 μM staurosporine for 24 h. Subsequently, DNA fragmentation was assessed by flow cytometry or immunofluorescence imaging using an in situ cell-death detection kit, based on terminal deoxynucleotidyl transferase dUTP nick end labeling (TUNEL), as described ([30]). Exposure of phosphatidylserine (PS) was assessed by AnnexinA5 binding using flow cytometry.

Setting [10] is: higher of two hrLL37 concentrations (60 ng/ml per methods).
Where [11] appears, read: lower of two hrLL37 concentrations (30 ng/ml per methods).

On to `C=C1/C(=C\C=C2/CCC[C@]3(C)[C@@H]([C@H](C)CCCC(C)(C)O)CC[C@@H]23)C[C@@H](O)C[C@@H]1O` [CCT, 1α, 25-dihydroxyvitamin D3], for which the “percentage of hMDM1 infected cells (infection rate)” value in experiment [1] is given as “did not change significantly”. The “cathelicidin protein expression, fold increase” value in experiment [2] (early (24 h)) came out at 25.5 ± 22.2 fold; in experiment [2] (late (6 d)), 152.5 ± 149.6 fold. Further, the “CAMP gene expression, fold increase” value in experiment [3] amounted to 587 ± 173 fold. In addition, in experiment [4], the “L. major parasite survival (mean fluorescent intensity of dsRed, relative to control)” value is recorded as 0.60 ± 0.25.

“hrLL37: human recombinant LL37 (PeptaNova GmbH), the hCAP18-derived amphipathic α-helical antimicrobial peptide”: the TUNEL positivity in experiment [5] (Lae axenic amastigotes, hrLL37 (10 and 100 ng/ml in methods, concentration of this value not stated), 24 h, mean ± SD, untreated 32.3 ± 13.3%) is 87.0 ± 6.1%; in experiment [5] (Lae log-phase promastigotes, higher of two increasing hrLL37 concentrations (60 ng/ml per methods), 72 h, mean ± SD of at least 3 experiments, untreated 13.3 ± 1.2%), 21.1 ± 2.3%; in experiment [5] (Lae log-phase promastigotes, lower of two increasing hrLL37 concentrations (30 ng/ml per methods), 72 h, mean ± SD of at least 3 experiments, untreated 13.3 ± 1.2%), 15.5 ± 8.3%; in [6] (Lm axenic amastigotes, rhLL37 (10 and 100 ng/ml in methods, concentration of this value not stated), 24 h, not significantly increased, untreated 12.0 ± 6.6%), 12.1 ± 2.1%; in [6] (Lm log-phase promastigotes, higher of two increasing hrLL37 concentrations (60 ng/ml per methods), 72 h, untreated 6.24 ± 1.9%) it was 22.9 ± 3.1%; in experiment [6] (Lm log-phase promastigotes, lower of two increasing hrLL37 concentrations (30 ng/ml per methods), 72 h, untreated 6.24 ± 1.9%), 20.2 ± 0.7%. In addition, the AnnexinA5 binding in experiment [7] (Lm axenic amastigotes, rhLL37 (10 and 100 ng/ml in methods, concentration of this value not stated), 24 h, minor but significant increase, untreated 3.3 ± 2.3%) was determined as 8.3 ± 3.0%; in [8] (Lae axenic amastigotes, hrLL37 (10 and 100 ng/ml in methods, concentration of this value not stated), 24 h, untreated 18.7 ± 6.1%) it was 71.3 ± 12.6%. The AnnexinA5-binding parasites in experiment [7] (setting [10]) amounted to 74.8 ± 23.2%; in experiment [7] (setting [11]), 51.5 ± 20.5%; in experiment [8] (setting [10]), 31.3 ± 26%; in experiment [8] (setting [11]) it was 27.1 ± 14.3%. For the same compound, the “Morphology of treated parasites” value in experiment [9] is “round-shaped morphology”.

As to `C=C1/C(=C\C=C2/CCC[C@]3(C)[C@@H]([C@H](C)/C=C/[C@@H](O)C4CC4)CC[C@@H]23)C[C@@H](O)C[C@@H]1O` [CPT, calcipotriol], in experiment [1], the “percentage of hMDM1 infected cells (infection rate)” value is on record as “did not change significantly”. In addition, the “cathelicidin protein expression, fold increase” value in experiment [2] (late (6 d)) was 101.9 ± 125.4 fold. In addition, the “CAMP gene expression, fold increase” value in experiment [3] stood at 282 fold. Further, in experiment [4], the “L. major parasite survival (mean fluorescent intensity of dsRed, relative to control)” value came to 0.74 ± 0.23.
